In paper PMC3486420, “In Vitro and In Vivo Characterizations of Chiglitazar, a Newly Identified PPAR Pan-Agonist” (PPAR Research, 2012):

Tests used:
PPARα = target: T1, PPARα (Homo sapiens, UniProt Q07869); test: PPARα transactivation reporter gene assay in SMMC-7721 cells; assay type: cell-based
T1 sequence (Q07869 1-468): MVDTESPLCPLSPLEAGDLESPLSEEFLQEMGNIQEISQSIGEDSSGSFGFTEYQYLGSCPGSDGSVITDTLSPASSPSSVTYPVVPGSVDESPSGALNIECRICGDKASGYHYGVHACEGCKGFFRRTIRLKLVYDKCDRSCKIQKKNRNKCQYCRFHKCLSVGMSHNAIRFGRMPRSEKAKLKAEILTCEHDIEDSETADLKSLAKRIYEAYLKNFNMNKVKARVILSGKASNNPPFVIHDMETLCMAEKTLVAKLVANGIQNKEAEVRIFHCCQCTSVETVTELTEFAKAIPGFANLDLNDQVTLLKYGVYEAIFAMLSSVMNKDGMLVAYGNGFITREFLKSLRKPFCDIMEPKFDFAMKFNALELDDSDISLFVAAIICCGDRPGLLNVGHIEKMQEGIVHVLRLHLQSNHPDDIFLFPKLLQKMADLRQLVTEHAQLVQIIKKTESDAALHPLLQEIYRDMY
T1 sequence (P19793 1-462 partner): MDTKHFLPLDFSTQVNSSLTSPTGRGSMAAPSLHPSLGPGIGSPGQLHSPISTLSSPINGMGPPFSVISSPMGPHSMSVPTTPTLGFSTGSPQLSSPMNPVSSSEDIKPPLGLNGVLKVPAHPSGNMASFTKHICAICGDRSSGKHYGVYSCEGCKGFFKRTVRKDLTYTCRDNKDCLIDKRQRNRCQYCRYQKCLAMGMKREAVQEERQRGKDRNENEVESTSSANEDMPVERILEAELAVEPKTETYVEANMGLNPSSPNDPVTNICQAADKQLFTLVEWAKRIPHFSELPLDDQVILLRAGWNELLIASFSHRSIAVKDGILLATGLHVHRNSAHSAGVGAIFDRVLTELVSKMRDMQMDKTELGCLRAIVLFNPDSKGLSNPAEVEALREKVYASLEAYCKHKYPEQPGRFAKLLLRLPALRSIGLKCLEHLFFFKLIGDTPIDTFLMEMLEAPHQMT

db/db mice = test: Oral treatment of diabetic db/db mice (glucose, insulin, IPGTT, body and fat pad weight); assay type: in vivo, mouse
From the text: Male db/db mice (BKS.Cg-m +/+ LEPR^db) in 6-7 weeks were purchased from The Jackson Laboratory (Bar Harbor, ME, USA). Male KKAy and C57BL/6J mice in 8–10 weeks were obtained from the Institute of Animal Science, Chinese Academy of Medical Sciences and Peking Union Medical College (Beijing, China). Animals were randomly sorted into different treatment groups (8–10 per group). […] Plasma glucose levels were examined at various time points by Accu-Chek Advantage II Glucose Strips (Roche Diagnostics, Basel, Switzerland) and measured by Accu-Chek Advantage (Roche Diagnostics). Animals were sacrificed 24 h after the last dosing and abdominal fat pad, liver, and skeletal muscle from KKAy mice and abdominal fat pad from db/db mice were taken for gene expression analysis.
For intraperitoneal glucose tolerance test (IPGTT), db/db mice dosed for 14 days were fasted overnight, followed by an intraperitoneal injection of glucose (2 g kg^−1). Blood samples were taken for measurement of plasma glucose before and 30, 60, and 120 min after the glucose load. The area under curves (AUC) was calculated to evaluate the IPGTT results. To determine plasma insulin concentrations, blood samples were taken from db/db mice dosed with different reagents or vehicle for 0, 3, 6, and 9 d, and insulin levels were measured by Insulin ELISA Kit (Roche Diagnostics) following the instructions from the manufacture.
Figure 2 In vivo effects on blood glucose control and insulin sensitization of chiglitazar. Male db/db (a, c and d) and male KKAy mice (b) were treated with vehicle (Ctrl), rosiglitazone (Ros), or chiglitazar (Chi) at the indicated doses for various days. Plasma glucose (a and b) and insulin (c) levels were measured at the indicated time points. […] Data are expressed as mean ± SE.
Figure 4 Influence in body and abdominal fat pad weights of chiglitazar. […] Changes in body weight were evaluated at the indicated days (b), and the fat pads were weighed from the scarified animals at day 15 (c). ^# P < 0.05 compared with day 0, and *P < 0.05 compared with Ctrl. n = 8 per group for KKAy, and n = 10 per group for db/db. Data are expressed as mean ± SE.

O=C(c1ccc(F)cc1)c1ccccc1NC(Cc1ccc(OCCn2c3ccccc3c3ccccc32)cc1)C(=O)O (stereo not shown) [Chi, 2-[(2-(4-fluorobenzoyl)phenyl)amino]-3-[4-(2-carbazolylethoxy)-phenyl]-propionic acid]
EC50 (PPARα; 24 h treatment, luciferase reporter, hRXR cotransfected, ia: inactive at 10 μM): 1100 ± 300 nM | PPARα % Max (PPARα; max response compared with WY at 50 μM): 142% | Glucose tolerance (IPGTT) (db/db mice; db/db mice, 20 mg kg^−1 oral daily, 14 days): increased | Body weight (db/db mice; db/db mice, 5, 10 and 20 mg kg^−1 oral daily, 14 days): dose-dependent weight gain | Abdominal fat pad weights (db/db mice; db/db mice, chiglitazar 20 mg kg^−1 vs rosiglitazone 5 mg kg^−1, 14 days): less increase | BG (blood glucose) levels (db/db mice; db/db mice, oral daily, 5 to 20 mg kg^−1, 14 days): significantly lowered | Plasma insulin concentrations (db/db mice; db/db mice, oral daily, different doses, compared with vehicle control): markedly decreased
